Reference: patent US20100069304A1, “PROTECTIVE EFFECTS OF INHIBITING THE INTERACTION OF CALMODULIN AND MUTANT HUNTINGTIN PROTEIN” (priority 2008, published 2010)
“Also recorded” adds a separate entry of the source. Values belong to the molecule of their own block, whether it stands above or below them.

Columns and labels:
TGase = TGase activity in mouse striatal homogenates; assay type: in vivo; details: 500 μM GTPγS, all mouse groups
Experimental: TGase II Activity Assay. TGase activity was measured by detecting the incorporation of a biotinylated TGase amine substrate, 5-(biotinamido)pentylamine (Pierce, Rockford, Ill.) into N,N'-dimethylcasein (Calbiochem, San Diego, Calif.) as previously described (Dudek et al., 2009). 96-well Immulon 4 HBX plates (Dynatech, Franklin, Mass.) were coated with 100 μl of N,N′-dimethylcasein (20 mg/ml) in 0.05M sodium bicarbonate, and stored at 4° C. overnight. After the unbound N,N′-dimethylcasein was discarded, the plate was washed with PBS and blocked with nonfat dry milk (2% milk in PBS) for 1 hour at 37° C., followed by 3 washes with PBS. Striatum from the various mice were homogenized in 0.1 M Tris-HCl pH 8.3, 1 mM EDTA, 1 mM PMSF, and protease inhibitor cocktail. Striatal homogenates (15 μg of protein/sample) were added to the plate with 0.1 M Tris-HCl pH 8.5, 0.15 M NaCl, 5 mM DTT, 0.5 mM biotin-labeled pentylamine, and 5 mM CaCl2. The mixture was incubated for 1 hour at 37° C. The plate was washed with TBS and 0.001% Tween followed by incubation with streptavidin conjugated to HRP (Jackson ImmunoResearch, West Grove, Pa.) for 1 hour at room temperature. […] Then the reaction was stopped with 3N sulfuric acid and the absorbance was read at 450 nm. […] Each sample was measured in triplicate.

[1] = biological target: T1, htt-exon1-44Q binding to CaM (Homo sapiens, UniProt P42858, INS38QQQQQQQQQQQQQQQQQQQQQQQ); test: In vitro mutant huntingtin-calmodulin binding (calmodulin-agarose)
T1 construct: encoding exon 1 of huntingtin with 44 glutamine residues; MBP; host or cells: Escherichia coli
T1 sequence (P42858 with tags, fused parts or gaps with the stated changes limits assumed): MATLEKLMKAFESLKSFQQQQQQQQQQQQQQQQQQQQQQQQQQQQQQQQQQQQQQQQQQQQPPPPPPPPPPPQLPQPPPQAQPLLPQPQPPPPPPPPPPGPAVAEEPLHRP

HD transgenic mice = details: cited from earlier work
[2] = system: cells expressing mutant huntingtin and TG; details: cited from earlier work
[3] = biological target: T2, mutant huntingtin (htt-N63-148Q) (Homo sapiens, UniProt P42858, INS26QQQQQQQQQQ/INS27QQQQQQQQQQ/INS28QQQQQQQQQQ/INS29QQQQQQQQQQ/INS30QQQQQQQQQQ/INS31QQQQQQQQQQ/INS32QQQQQQQQQQ/INS33QQQQQQQQQQ/INS34QQQQQQQQQQ/INS35QQQQQQQQQQ/INS36QQQQQQQQQQ/INS37QQQQQQQQQQ/INS38QQQQQQQ); test: TG-modified huntingtin (81D4 immunoprecipitation and immunoblot) in transfected HEK-293T cells; assay type: cell-based; details: HEK-293T cells with htt-N63-148Q, TG2 and CaM construct vs vector control
T2 construct: myc; expressed in transfected cells; host or cells: HEK-293T
T2 sequence (P42858 with tags, fused parts or gaps limits assumed, stated change not applied): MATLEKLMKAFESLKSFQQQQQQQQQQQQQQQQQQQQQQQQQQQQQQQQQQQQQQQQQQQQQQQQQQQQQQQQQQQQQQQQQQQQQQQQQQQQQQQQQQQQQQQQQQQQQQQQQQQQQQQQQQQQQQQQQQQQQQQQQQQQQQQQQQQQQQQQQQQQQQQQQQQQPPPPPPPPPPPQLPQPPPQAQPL
Experimental: HEK-293T cells were grown in OptiMEM reduced serum medium (Invitrogen, Carlsbad, Calif.) containing nonessential amino acids, antimycotic and antibiotic agents, and 10% FBS, in the presence of 5% CO2 at 37° C. Cells were grown to 80-90% confluency and transfected using Lipofectamine Plus (Invitrogen, Carlsbald, Calif.). […] Forty-eight hours after transfection, cells were harvested and resuspened in lysis buffer containing 50 mM Tris-HCl, pH 8.8, 100 mM NaCl, 5 mM MgCl2, 0.05% NP-40, 1 mM EDTA (Tang T S, Tu H, Chan E Y, et al. Huntingtin and huntingtin-associated protein 1 influence neuronal calcium signaling mediated by inositol-(1,4,5)triphosphate receptor type 1. Neuron 2003;39:227-239) and 1:1,000 protease inhibitor mixture (Sigma, St. Louis, Mo.). […]
Immunoblots. […] Signal was detected using enhanced chemiluminescence (ECL) Western blotting detection reagents (Amersham Biosciences, Piscataway, N.J.). Immunoblots were quantified by calculating the sum of the densities of all of the pixels within each protein band as the integrated optical density (IOD), using Scion Image for Windows (Scion, Frederick, Md.). Film background IOD was measured and subtracted from each band IOD. Measurements were done in triplicate and the mean was calculated.

transglutaminase = test: In situ transglutaminase assay in intact cells; assay type: cell-based, human; details: SHSY5Y-htt-N63-148Q cells
Experimental: In situ transglutaminase assay. In this in situ assay, transglutaminase activity is measured in intact cells via incorporation of a polyamine and the presence of the transglutaminase-catalyzed bond. Forty-two hours post viral infection, cells were treated with 2 mM 5-(biotinamido)pentylamine, a biotinylated polyamine (Pierce, Rockford, Ill.), and 6 hours post polyamine treatment, cells were harvested and lysed in 0.1 M Tris-HCl pH 8.3, 1 mM EDTA, 1 mM PMSF, and protease inhibitor cocktail. 96-well Immulon 4 HBX plates (Dynatech, Franklin, Mass.) were coated with anti-ε-(γ-glutamyl)lysine (81D4) antibody (CovalAb, Lyon, France) in 0.1 M Na2HPO4.7 H2O pH 9 overnight at 4° C. Then the plates were washed with PBS and blocked with 2% milk in PBS for 1 hour at room temperature, followed by 3 washes with PBS with 0.0375% Tween. Cell lysates (50 μg of protein/sample/well) were added to the wells in triplicates and incubated for 1 hour at 37° C. The plate was washed with PBS and 0.0375% Tween, followed by incubation with streptavidin conjugated to HRP (Jackson ImmunoResearch, West Grove, Pa.) for 1 hour at room temperature. After final washes, a 1×TMB substrate solution (eBioscience, SanDiego, Calif.) was added and color was allowed to develop for 5-10 minutes. The reaction was stopped with 3 N sulfuric acid and the absorbance was read at 450 nm.

reduction of TGase activity (TGase): at least 60%
Molecule: Nc1nc2c(ncn2[C@@H]2O[C@H](COP(=O)(O)OP(=O)(O)OP(O)(O)=S)[C@@H](O)[C@H]2O)c(=O)[nH]1 [GTPγS]

amount of CaM-bound htt-exon1-44Q ([1]; 664 μM W-5 along with 10 μM of CaM-peptide): significantly increased
Molecule: Cl.NCCCCCCNS(=O)(=O)c1cccc2ccccc12 [W-5, N-(6-Aminohexyl)-1-naphthalenesulfonamide hydrochloride]
amount of CaM-bound htt-exon1-44Q ([1]; W-5 alone): did not affect the amount of CaM-bound htt-exonl-44Q

Molecule: NCCSSCCN [cystamine]
survival (HD transgenic mice): increase survival
cell survival [2]: increased cell survival
cross-linking of huntingtin [2]: decreased the cross-linking of huntingtin

Molecule: CaM-N-term: calmodulin fragment: first 76 amino acids, contains the first two Ca2+ binding sites
TG-modified huntingtin compared to control cells (in words) [3]: no significant decrease in TG-modified huntingtin, but rather an increase; also recorded: did not reduce the TG-catalyzed modifications of huntingtin

Molecule: GDTVEREKDAYNSLEGFDNTIHTLRADIGMVEEVAKSKRDEEFLE [scram-CaM-peptide]
total TG activity in situ between infections (transglutaminase): no significant difference in total TG activity
